According to the supplement of paper PMC10307832:

Experiments:
Assay in all cases: relative viability (nuclei count vs DMSO), 5 days (fraction); higher = more cells survive
[1] = compound: CCn1c(-c2nonc2N)nc2c(C#CC(C)(C)O)ncc(OC[C@H]3CCCNC3)c21 + CC1(C)CCC(c2ccc(Cl)cc2)=C(CN2CCN(c3ccc(C(=O)NS(=O)(=O)c4ccc(N[C@H](CCN5CCOCC5)CSc5ccccc5)c(S(=O)(=O)C(F)(F)F)c4)cc3)CC2)C1 [Navitoclax] (partner 0.5 µM)
How it was run: (§1)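 Each reported value is a median over duplicate plates. It expresses relative viability: treated-well nuclei count divided by vehicle-well nuclei count. Lung cancer cell lines in 1536-well plates were dosed by pin tool a day after seeding, alone with one drug or with a fixed anchor-drug dose plus five library-drug doses (not always all listed) in √10 steps, and nuclei were counted after 5 days.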

[2] = compound: CCn1c(-c2nonc2N)nc2c(C#CC(C)(C)O)ncc(OC[C@H]3CCCNC3)c21 + C[C@@H](Oc1cc(-c2cnn(C3CCNCC3)c2)cnc1N)c1c(Cl)ccc(F)c1Cl [Crizotinib] (partner 1 µM)
How it was run: as §1

[3] = compound: CCn1c(-c2nonc2N)nc2c(C#CC(C)(C)O)ncc(OC[C@H]3CCCNC3)c21 + Nc1nc2[nH]cc(CCc3ccc(C(=O)N[C@@H](CCC(=O)O)C(=O)O)cc3)c2c(=O)[nH]1 [Pemetrexed] (partner 0.2 µM)
How it was run: as §1

BAM7 + Tozasertib = compound: CCOC1=CC=CC=C1N=NC2=C(NN(C2=O)C3=NC(=CS3)C4=CC=CC=C4)C [BAM7] + Cc1cc(Nc2cc(N3CCN(C)CC3)nc(Sc3ccc(NC(=O)C4CC4)cc3)n2)n[nH]1 [Tozasertib] (partner 0.1 µM)
How it was run: as §1

Row | Cell Line | relative viability ([1]; first compound 0.01 µM) | relative viability ([1]; first compound 0.03162 µM) | relative viability ([1]; first compound 0.1 µM) | relative viability ([1]; first compound 0.3162 µM) | relative viability ([1]; first compound 1 µM) | relative viability ([2]; first compound 0.01 µM) | relative viability ([2]; first compound 0.03162 µM) | relative viability ([2]; first compound 0.1 µM) | relative viability ([2]; first compound 0.3162 µM) | relative viability ([2]; first compound 1 µM) | relative viability ([3]; first compound 0.01 µM) | relative viability ([3]; first compound 0.03162 µM) | relative viability ([3]; first compound 0.1 µM) | relative viability ([3]; first compound 0.3162 µM) | relative viability ([3]; first compound 1 µM) | relative viability (BAM7 + Tozasertib; first compound 0.5 µM) | relative viability (BAM7 + Tozasertib; first compound 5 µM) | relative viability (BAM7 + Tozasertib; first compound 15.81 µM) | relative viability (BAM7 + Tozasertib; first compound 50 µM)
1 | EMC-BAC-2 | 1.17 | 1.18 | 1.15 | 1.07 | 1.13 | 0.773 | 0.846 | 0.696 | 0.738 | 0.759 | 0.391 | 0.427 | 0.443 | 0.43 | 0.427 | 0.302 | 0.291 | 0.289 | 0.272
2 | NCI-H2405 | 0.892 | 0.873 | – | 0.883 | 1 | 0.888 | 0.911 | 0.704 | 0.798 | 0.848 | 1.03 | 1.12 | 0.964 | 0.96 | 1.13 | 0.721 | 0.809 | 0.73 | 0.721
3 | NCI-H1944 | 1.11 | 0.954 | 1.13 | 1.05 | 1.08 | 1.07 | 1.07 | 1.02 | 1.07 | 1.09 | 0.618 | 0.622 | 0.657 | 0.565 | 0.631 | 0.25 | 0.253 | 0.257 | 0.257
4 | EPLC-272H | 1.24 | 1.21 | 0.932 | 1.16 | 0.906 | 0.962 | 1.09 | 0.892 | 0.802 | 0.904 | 0.299 | 0.301 | 0.346 | 0.297 | 0.282 | 0.252 | – | 0.275 | 0.334
5 | NCI-H1915 | 0.821 | 0.778 | 0.79 | 0.488 | 0.76 | 0.909 | 0.909 | 0.809 | 0.872 | 0.856 | 0.452 | 0.514 | 0.487 | 0.444 | 0.49 | 0.443 | 0.4 | 0.405 | 0.399
6 | NCI-H596 | 0.914 | 0.96 | 0.934 | 1 | 0.938 | 0.834 | 1.08 | 0.996 | 0.915 | 0.948 | 0.48 | – | 0.443 | 0.47 | 0.5 | 1.11 | 0.936 | 0.789 | 0.9
7 | NCI-H322M | 1.25 | 1.27 | 1.17 | 1.13 | 1.23 | 0.969 | 0.981 | 0.9 | 0.811 | 0.914 | 0.634 | 0.571 | 0.556 | 0.568 | 0.571 | 0.481 | 0.474 | 0.523 | 0.467
